Experimental data taken from US8044198B2, “Sirtuin modulating compounds” (Sirtris Pharmaceuticals, Inc., priority 2005, dated 2011).
Like-named read-outs stand apart in the source and are kept apart here.

Molecular target: T1, SIRT1 (Homo sapiens, UniProt Q96EB6)
T1 sequence (Q96EB6 1-747): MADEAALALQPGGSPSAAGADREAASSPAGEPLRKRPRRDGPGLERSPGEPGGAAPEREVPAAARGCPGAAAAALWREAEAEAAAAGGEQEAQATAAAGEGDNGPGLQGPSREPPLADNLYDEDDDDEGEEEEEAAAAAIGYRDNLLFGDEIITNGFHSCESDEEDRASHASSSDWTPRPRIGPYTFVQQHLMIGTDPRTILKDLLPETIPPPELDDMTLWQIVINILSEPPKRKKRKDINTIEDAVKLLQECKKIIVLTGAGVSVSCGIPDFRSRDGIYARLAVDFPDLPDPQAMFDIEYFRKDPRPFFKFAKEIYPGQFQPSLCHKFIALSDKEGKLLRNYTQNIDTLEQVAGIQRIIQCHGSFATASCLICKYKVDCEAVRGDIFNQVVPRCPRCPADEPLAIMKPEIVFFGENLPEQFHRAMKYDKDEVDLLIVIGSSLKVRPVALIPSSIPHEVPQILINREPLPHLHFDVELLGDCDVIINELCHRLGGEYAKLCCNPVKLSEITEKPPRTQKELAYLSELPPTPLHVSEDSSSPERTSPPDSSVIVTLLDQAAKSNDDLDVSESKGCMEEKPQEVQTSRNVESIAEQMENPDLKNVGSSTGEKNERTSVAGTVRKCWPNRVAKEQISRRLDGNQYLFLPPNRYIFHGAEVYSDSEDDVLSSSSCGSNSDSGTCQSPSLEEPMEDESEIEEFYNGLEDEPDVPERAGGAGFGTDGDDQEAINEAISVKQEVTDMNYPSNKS
Assay: SIRT1 mass spectrometry (MS) based deacetylation assay; on FOLD ACT. MS: test concentration or dose not given here
Format: biochemical
Details: for IC50: Sirt1 Inhibitors

[1] = Sirt1 activators, fold activation as determined by MS
[2] = Sirt1 activators, mass spectrometry assay, read-out: ED50 MS ASSAY
[3] = SIRT1 activation, mass spectrometry assay, read-out: ED50 MS ASSAY
[4] = SIRT1 fold activation as determined by MS

SMILES	FOLD ACT. MS [1]	EC50 [2] [µM]	EC50 [3] [µM]	FOLD ACT. MS [4]	further results
COc1ccc(C)cc1S(=O)(=O)Nc1cc(-c2nc3ncccc3o2)ccn1 [Compound 653]					IC50 (mass spectrometry assay): 101 to 150 µM
O=S(=O)(Nc1cccc(-c2nc3ccncc3s2)c1)c1ccc(S(=O)(=O)c2ccccc2)s1 [Compound 654]					IC50 (mass spectrometry assay): > 150 µM
COc1ccc(NC(=S)Nc2cc(-c3nc4ncccc4o3)ccn2)cc1OC [Compound 660]	B (B (Fold Activation <250%))	5 to 50			
COc1cc(NC(=S)Nc2cc(-c3nc4ncccc4o3)ccn2)cc(OC)c1 [Compound 661]	B (B (Fold Activation <250%))	< 5			
COc1cc(NC(=S)Nc2cc(-c3nc4ncccc4o3)ccn2)cc(OC)c1OC [Compound 663]	B (B (Fold Activation <250%))	5 to 50			
FC(F)(F)c1cccc(Cl)c1NC(=S)Nc1cc(-c2nc3ncccc3o2)ccn1 [Compound 667]		5 to 50			
O=C(Nc1ccccc1-c1nc2ncccc2o1)c1ccc(Oc2ncccn2)cc1 [Compound 668]	B (B (Fold Activation <250%))	5 to 50			
COc1ccc(OC(=O)Nc2ccccc2-c2nc3ncccc3o2)cc1OC [Compound 670]	B (B (Fold Activation <250%))				EC50: 5 to 50 µM
O=C(Nc1ccccc1-c1cn2c(CNCC(O)CO)csc2n1)c1cnc2ccccc2n1 (centres unmarked) [Compound 676]	A (A (Fold activation >250%))	< 5			
O=C1CN(Cc2csc3nc(-c4ccccc4NC(=O)c4cnc5ccccc5n4)cn23)CCN1 [Compound 677]	A (A (Fold activation >250%))	< 5			
Cc1cc(C(=O)Nc2ccccc2-c2cn3c(CN4CCNCC4)csc3n2)n(C)n1 [Compound 678]	B (B (Fold Activation <250%))	5 to 50			
COc1ccc(C(=O)Nc2ccccc2-c2cn3c(CN4CCNCC4)csc3n2)cc1F [Compound 679]	B (B (Fold Activation <250%))	5 to 50			
O=C(Nc1ccccc1-c1cn2c(CCN3CCNCC3)csc2n1)c1cnc2ccccc2n1 [Compound 680]	A (A (Fold activation >250%))	< 5			
COc1cc(C(=O)Nc2ccccc2-c2nc3cc(CN4CCOCC4)cnc3s2)cc(OC)c1OC [Compound 681]		5 to 50			
O=C(Nc1ccccc1-c1nc2cc(CN3CCOCC3)cnc2s1)c1ccc2c(c1)OCO2 [Compound 683]			5 to 50	B (B (Fold Activation <250%))	
Cc1ccc(C(=O)Nc2ccccc2-c2nc3cc(CN4CCOCC4)cnc3s2)cc1C [Compound 684]			5 to 50	B (B (Fold Activation <250%))	
N#Cc1cccc(C(=O)Nc2ccccc2-c2nc3cc(CN4CCOCC4)cnc3s2)c1 [Compound 685]			< 5	B (B (Fold Activation <250%))	
CN(C)c1cccc(C(=O)Nc2ccccc2-c2nc3cc(CN4CCOCC4)cnc3s2)c1 [Compound 686]			< 5	A (A (Fold activation >250%))	
COc1cc(C(=O)Nc2ccccc2-c2nc3cc(CN(C)C)cnc3s2)cc(OC)c1OC [Compound 689]			5 to 50	A (A (Fold activation >250%))	
O=C(Nc1ccccc1-c1nc2ccc(CN3CCNCC3)nc2s1)c1cnc2ccccc2n1 [Compound 690]			< 5	A (A (Fold activation >250%))	
O=C(Nc1ccccc1-c1cn2c(CN3CCNCC3)csc2n1)c1cccc2cccnc12 [Compound 692]			101 to 150	B (B (Fold Activation <250%))	
O=C(Nc1ccccc1-c1cn2c(CN3CCNCC3)csc2n1)c1cc(F)cc(F)c1 [Compound 695]			< 5	A (A (Fold activation >250%))	
O=C(Nc1ccccc1-c1cn2c(CN3CCNCC3)csc2n1)c1cccc(OC(F)(F)F)c1 [Compound 698]			< 5	A (A (Fold activation >250%))	
O=C(Nc1ccccc1-c1cn2c(COCC(O)CO)csc2n1)c1cnc2ccccc2n1 (centres unmarked) [Compound 699]			5 to 50	A (A (Fold activation >250%))	
